From PubChem BioAssay (NCI) come the findings set out here.

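How tested: cells in 96-well plates exposed to compound for 48 hours at five concentrations. The concentration for full growth arrest is given as TGI.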

Among the test systems are NCI-H226 lung; RPMI-8226 leukemia; MDA-MB-435; SN12C renal; SK-MEL-5 melanoma; PC-3 prostate; EKVX NSCLC; SF-268 CNS; HCC-2998 colon; SR leukemia.
Assay in all cases: DTP human tumour cell line panel, 48 h

As usually defined, the TGI is the concentration at which net growth stops. A low value points to more potent growth arrest.

As to `Cc1ccc(C(=O)Nc2ccc(S(=O)(=O)O)c3cc(S(=O)(=O)O)cc(S(=O)(=O)O)c23)cc1NC(=O)c1cccc(NC(=O)Nc2cccc(C(=O)Nc3cc(C(=O)Nc4ccc(S(=O)(=O)O)c5cc(S(=O)(=O)O)cc(S(=O)(=O)O)c45)ccc3C)c2)c1`, the TGI with NCI-H226 lung was above 89.4 µM; in the experiment with RPMI-8226 leukemia it was above 100 µM; in the experiment on MDA-MB-435, above 100 µM; with SN12C renal, above 100 µM; in the experiment on SK-MEL-5 melanoma, above 100 µM; in the experiment with PC-3 prostate, above 100 µM. Also, the TGI in the experiment on EKVX NSCLC, in the experiment with SF-268 CNS, in the experiment on HCC-2998 colon and in the experiment with SR leukemia was above 100 µM in each case.

As to `COc1ccc(-c2cc(-c3ccc(C)cc3)n(C3OC(COC(C)=O)C(OC(C)=O)C(OC(C)=O)C3OC(C)=O)c(=S)c2C#N)cc1` (stereo not given), the TGI in the experiment with NCI-H226 lung, in the experiment on RPMI-8226 leukemia, with MDA-MB-435, in the experiment with SN12C renal, with SK-MEL-5 melanoma and in the experiment with PC-3 prostate was above 100 µM each time. Further, the TGI in the experiment on EKVX NSCLC, in the experiment with SF-268 CNS, in the experiment on HCC-2998 colon and in the experiment on SR leukemia was above 100 µM in each case.

`CC(=O)C1=C(C)N(c2ccccc2)C2(O)C3=C(C(=O)c4ccccc4C3=O)C(O)=CC12Cl` (stereo not given): the total growth inhibition concentration (TGI) came out at 55.7 µM in the experiment on NCI-H226 lung; 4.39 µM in the experiment on RPMI-8226 leukemia; 6.28 µM with MDA-MB-435; 24 µM with SN12C renal; 9.04 µM in the experiment on SK-MEL-5 melanoma; 46.5 µM in the experiment on PC-3 prostate. The TGI is above 100 µM in the experiment on EKVX NSCLC, 60.6 µM in the experiment with SF-268 CNS, 25.9 µM in the experiment with HCC-2998 colon and 12.3 µM in the experiment on SR leukemia.
